Patent US8377929B2, “Crystalline forms of the tri-mesylate salt of perphenazine-GABA and process of producing the same” (Ramot at Tel-Aviv University Ltd., priority 2010, dated 2013)

What was measured:
Type in all cases: physicochemical
[1] = Stability and hygroscopy of crystalline Form B compared to crystalline Form A; settings: as compared to crystalline Form A
[2] = Particle size (Malvern MS2000); design: unit not given here; settings: particle size distribution, 0.1% SPAN 85 in hexane, sonication 10 seconds, unit μm
Description: Particle size data was acquired using a Malvern Instruments MS2000 equipped with a Hydro2000 μP dispersion unit. Data was collected and analyzed with Mastersizer 2000 v. 5.1 software, using volume based measurements. NIST traceable glass beads were used as the reference standard. […] Model: general purpose; Sensitivity: normal.

[3] = BET surface area (nitrogen absorption); settings: 11-point BET, outgassed at 40° C. under vacuum
Experimental: Surface area data were collected using nitrogen absorption on a BET Micrometics Gemini V (11-point BET analysis) analyzer. The samples were outgassed at 40° C. under vacuum for at least 2 hours. SRM 1899 and SRM 1900 were used as the calibration standards.

[4] = Moisture absorption/desorption (DVS); settings: for Weight gain from 5-55% RH / Weight gain from 55-95% RH: DVS adsorption phase; for Weight gain from 55-95% RH: samples did not reach equilibration; for Weight loss from 95-5% RH: DVS desorption phase; for Weight loss at 5% RH: DVS, upon equilibration to 5% RH
Experimental: Moisture absorption/desorption (DVS) data was collected on a VTI SGA-100 Vapor Sorption Analyzer. Absorption and desorption data were collected over a range of 5% to 95% relative humidity (RH) at 10% RH intervals under a nitrogen purge. Samples were not dried prior to analyses. Equilibrium criteria used for analyses were less than 0.0100% weight change in 5 minutes, with a maximum equilibrium time of 3 hours if the weight criterion was not met. Data were not corrected for the initial moisture content of the samples. NaCl and PVP were used as calibration standards.

[5] = Bulk and tapped density
Description: Samples were submitted to Particle Technology Labs (PTL), Downers Grove, Ill., for bulk and tapped density analyses.

CS(=O)(=O)O.CS(=O)(=O)O.CS(=O)(=O)O.NCCCC(=O)OCCN1CCN(CCCN2c3ccccc3Sc3ccc(Cl)cc32)CC1 [BL-1020 MSA salt crystalline Form B, perphenazine 4-aminobutyrate trimesylate]
Hygroscopy [1]: reduced hygroscopy
Stability [1]: higher stability
d10 ([2]; listed as 01BIL02-01-22): 2.1
d50 ([2]; listed as 01BIL02-01-22): 5.8
d90 ([2]; listed as 01BIL02-01-22): 18.3
d10 ([2]; listed as 01BIL02-02-22): 2.1
d50 ([2]; listed as 01BIL02-02-22): 6.1
d90 ([2]; listed as 01BIL02-02-22): 22.5
d10 ([2]; listed as 01BIL02-03-22): 2.1
d50 ([2]; listed as 01BIL02-03-22): 6.2
d90 ([2]; listed as 01BIL02-03-22): 19.7
d10 ([2]; listed as 01BIL02-04-22): 2.3
d50 ([2]; listed as 01BIL02-04-22): 6.8
d90 ([2]; listed as 01BIL02-04-22): 21.8
d10 ([2]; listed as 06-01915-3): 3.8
d50 ([2]; listed as 06-01915-3): 9.3
d90 ([2]; listed as 06-01915-3): 41.8
BET surface area ([3]; listed as 01BIL02-01-22): 4.77 m^2/g
BET surface area ([3]; listed as 01BIL02-02-22): 4.55 m^2/g
BET surface area ([3]; listed as 01BIL02-03-22): 4.93 m^2/g
BET surface area ([3]; listed as 01BIL02-04-22): 4.57 m^2/g
BET surface area ([3]; listed as 01BIL02-05-26): 2.67 m^2/g
BET surface area ([3]; listed as 06-01915-3): 4.84 m^2/g
Weight gain from 5-55% RH ([4]; listed as 01BIL02-01-22): 0.4%
Weight gain from 5-55% RH ([4]; listed as 01BIL02-02-22): 0.4%
Weight gain from 5-55% RH ([4]; listed as 01BIL02-03-22): 0.4%
Weight gain from 5-55% RH ([4]; listed as 01BIL02-04-22): 0.4%
Weight gain from 5-55% RH ([4]; listed as 01BIL02-05-26): 0.4%
Weight gain from 5-55% RH ([4]; listed as 06-01915-3): 0.6%
Weight gain from 55-95% RH ([4]; listed as 01BIL02-01-22): 71.6%
Weight gain from 55-95% RH ([4]; listed as 01BIL02-02-22): 69.8%
Weight gain from 55-95% RH ([4]; listed as 01BIL02-03-22): 72.7%
Weight gain from 55-95% RH ([4]; listed as 01BIL02-04-22): 70.5%
Weight gain from 55-95% RH ([4]; listed as 01BIL02-05-26): 68.9%
Weight gain from 55-95% RH ([4]; listed as 06-01915-3): 71.6%
Weight loss from 95-5% RH ([4]; listed as 01BIL02-01-22): 67.0%
Weight loss from 95-5% RH ([4]; listed as 01BIL02-02-22): 64.8%
Weight loss from 95-5% RH ([4]; listed as 01BIL02-03-22): 67.6%
Weight loss from 95-5% RH ([4]; listed as 01BIL02-04-22): 66.0%
Weight loss from 95-5% RH ([4]; listed as 01BIL02-05-26): 64.8%
Weight loss from 95-5% RH ([4]; listed as 06-01915-3): 66.9%
Weight loss at 5% RH ([4]; listed as 01BIL02-01-22): 0.1%
Weight loss at 5% RH ([4]; listed as 01BIL02-02-22): 0.1%
Weight loss at 5% RH ([4]; listed as 01BIL02-03-22): 0.1%
Weight loss at 5% RH ([4]; listed as 01BIL02-04-22): 0.1%
Weight loss at 5% RH ([4]; listed as 01BIL02-05-26): 0.3%
Weight loss at 5% RH ([4]; listed as 06-01915-3): 0.6%
Bulk density ([5]; listed as 01BIL02-01-22): 0.16 g/mL
Tapped density ([5]; listed as 01BIL02-01-22): 0.25 g/mL
Bulk density ([5]; listed as 01BIL02-02-22): 0.16 g/mL
Tapped density ([5]; listed as 01BIL02-02-22): 0.24 g/mL
Bulk density ([5]; listed as 01BIL02-03-22): 0.18 g/mL
Tapped density ([5]; listed as 01BIL02-03-22): 0.26 g/mL
Bulk density ([5]; listed as 01BIL02-04-22): 0.13 g/mL
Tapped density ([5]; listed as 01BIL02-04-22): 0.22 g/mL
Bulk density ([5]; listed as 06-01915-3): 0.18 g/mL
Tapped density ([5]; listed as 06-01915-3): 0.24 g/mL
